Values quoted from earlier work as cited in patent EP2681209B1, “COMPOUNDS AND METHODS FOR THE TREATMENT OF PAIN AND OTHER DISORDERS” (Aquilus Pharmaceuticals, Inc, priority 2011, dated 2012).

Columns and labels:
[1] = biological target: MMP-9 (Homo sapiens, UniProt P14780); settings: background literature; cited from earlier work
[2] = tested on: TNF-alpha; settings: background literature; cited from earlier work

MMP-9, sequence (P14780 94-707, species assumed): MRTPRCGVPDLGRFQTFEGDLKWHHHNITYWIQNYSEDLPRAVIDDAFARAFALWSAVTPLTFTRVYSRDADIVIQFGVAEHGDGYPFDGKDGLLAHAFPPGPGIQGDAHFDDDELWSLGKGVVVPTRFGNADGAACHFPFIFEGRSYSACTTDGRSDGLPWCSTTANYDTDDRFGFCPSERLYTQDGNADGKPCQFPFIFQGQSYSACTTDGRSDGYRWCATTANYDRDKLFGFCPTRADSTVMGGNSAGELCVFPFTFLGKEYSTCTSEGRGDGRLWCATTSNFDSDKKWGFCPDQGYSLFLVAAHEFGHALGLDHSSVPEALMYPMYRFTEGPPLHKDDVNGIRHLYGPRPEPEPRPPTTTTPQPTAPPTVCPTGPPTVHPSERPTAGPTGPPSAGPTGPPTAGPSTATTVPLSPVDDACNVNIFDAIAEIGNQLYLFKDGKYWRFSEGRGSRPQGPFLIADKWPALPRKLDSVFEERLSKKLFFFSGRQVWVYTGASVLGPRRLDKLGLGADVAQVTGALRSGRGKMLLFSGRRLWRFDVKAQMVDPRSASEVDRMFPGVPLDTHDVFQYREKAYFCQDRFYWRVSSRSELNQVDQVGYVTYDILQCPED

CC(C)C[C@H](CC(=O)NO)C(=O)N[C@@H](Cc1ccc2ccccc2c1)C(=O)N[C@@H](C)C(N)=O [TAPI-0]
IC50 [1]: 0.5 nM
IC50 [2]: ~100 nM
